Results reported in US11339157B1, “4H-pyrrolo[3,2-c]pyridin-4-one derivatives” (Bayer Aktiengesellschaft, priority 2017, dated 2022).
Read-outs that look alike come from different tables or passages of the source.

Columns and labels:
[1] = target: EGFR ins SVD (insertion of SVD between D770 and N771) (Homo sapiens, UniProt P00533, INS767SVD); experiment: Exon 20-Mutant-EGFR(D770_N771insSVD) kinase assay (TR-FRET); format: biochemical
[2] = target: EGFR ins ASV (insertion of ASV between V769 and D770); experiment: Exon 20-Mutant-EGFR(V769_D770insASV) kinase assay (TR-FRET); format: biochemical, human; details: 2 mM ATP
Procedure: Exon 20-Mutant-EGFR(V769_D770insASV) Kinase Assay
Inhibitory activity of compounds of the present invention against an Epidermal Growth Factor Receptor (EGFR) with an insertion of the amino acids sequence ASV between V769 and D770 was quantified employing the TR-FRET based kinase activity assay as described in the following paragraphs.
For the assay 50 nl of a 100-fold concentrated solution of the test compound in DMSO was pipetted into either a black low volume 384well microtiter plate or a black 1536 well microtiter plate (both Greiner Bio-One, Frickenhausen, Germany), 2 μl of a solution of EGFR in aqueous assay buffer [50 mM Hepes pH 7.0, 10 mM MgCl2, 1 mM dithiothreitol, 0.5 mM EGTA, 0.3 mM activated sodium ortho-vanadate, 0.005% (w/v) bovine serum albumin, 0.005% (v/v) Tween-20] were added and the mixture was incubated for 15 min at 22° C. to allow pre binding of the test compounds to the enzyme before the start of the kinase reaction. […] The concentration of EGFR was adjusted depending of the activity of the enzyme lot and was chosen appropriate to have the assay in the linear range, typical concentration was 2.5 pg/μl. The reaction was stopped by the addition of 3 μl of a solution of HTRF detection reagents (83.3 nM streptavidine-XL665 [Cisbio Bioassays, Codolet, France] and 1.67 nM PT66-Tb-Cryptate, an terbium-cryptate labelled anti-phospho-tyrosine antibody from Cisbio Bioassays [instead of the PT66 Tb cryptate PT66 Eu Chelate from Perkin Elmer can also be used]) in an aqueous EDTA-solution (133.3 mM EDTA, 0.2% (w/v) bovine serum albumin in 50 mM HEPES pH 7.5).
The resulting mixture was incubated 1 h at 22° C. to allow the binding of the biotinylated phosphorylated peptide to the streptavidine-XL665 and the PT66-Tb-Cryptate. Subsequently the amount of phosphorylated substrate was evaluated by measurement of the resonance energy transfer from the PT66-Tb-Cryptate to the streptavidine-XL665.

[3] = test system: Ba/F3-EGFR-WT cells; experiment: Proliferation assay in BA/F3 (wild type) cells (Cell Titer-Glo); format: cell-based; details: Table 10, plated with 10 ng/mL EGF
Outline: (§1)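 Ba/F3 cells stably expressing retrovirally transduced EGFR-WT or EGFR-insSVD; WT cells plated with 10 ng/mL EGF, insSVD cells without EGF. Compound exposure 48 h at 37° C; viability read by CellTiter-Glo luminescence.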

[4] = test system: Ba/F3-EGFR-insSVD cells; experiment: Proliferation assay in BA/F3 (ins SVD) cells (Cell Titer-Glo); format: cell-based; details: Table 10, plated without EGF
Outline: as §1

[5] = target: Bub1 (Homo sapiens (Human), UniProt O43683); experiment: Bub1 kinase assay (TR-FRET, 10 μM ATP); format: biochemical; details: mean, read-out: Bub1 kinase assay IC50 [mol/l] (mean)
Sequence of Bub1 (O43683 704-1085): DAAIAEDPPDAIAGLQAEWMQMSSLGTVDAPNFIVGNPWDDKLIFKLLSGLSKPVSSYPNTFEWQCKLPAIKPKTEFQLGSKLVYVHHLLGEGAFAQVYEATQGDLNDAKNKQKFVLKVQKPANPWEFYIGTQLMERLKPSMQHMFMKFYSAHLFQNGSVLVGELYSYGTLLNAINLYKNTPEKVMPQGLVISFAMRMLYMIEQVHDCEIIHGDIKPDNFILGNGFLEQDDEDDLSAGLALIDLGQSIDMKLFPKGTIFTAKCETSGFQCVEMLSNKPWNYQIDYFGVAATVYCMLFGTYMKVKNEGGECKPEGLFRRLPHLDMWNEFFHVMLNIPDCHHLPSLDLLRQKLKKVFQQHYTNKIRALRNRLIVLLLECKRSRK
Text: Bub1-inhibitory activities of compounds described in the present invention were quantified using a time-resolved fluorescence energy transfer (TR-FRET) kinase assay which measures phosphorylation of the synthetic peptide Biotin-Ahx-[…]—SEQ ID NO: 5 (C-terminus in amide form), purchased from e.g. Biosyntan (Berlin, Germany) by the (recombinant) catalytic domain of human Bub1 (amino acids 704-1085), expressed in Hi5 insect cells with an N-terminal His6-tag (SEQ ID NO: 9) and purified by affinity-(Ni-NTA) and size exclusion chromatography.
In a typical assay 11 different concentrations of each compound (0.1 nM, 0.33 nM, 1.1 nM, 3.8 nM, 13 nM, 44 nM, 0.15 μM, 0.51 μM, 1.7 μM, 5.9 μM and 20 μM) were tested in duplicate within the same microtiter plate. To this end, 100-fold concentrated compound solutions (in DMSO) were previously prepared by serial dilution (1:3.4) of 2 mM stocks in a clear low volume 384-well source microtiter plate (Greiner Bio-One, Frickenhausen, Germany), from which 50 nl of compounds were transferred into a black low volume test microtiter plate from the same supplier. […] The resulting mixture (5 μl final volume) was incubated at 22° C. during 60 min., and the reaction was stopped by the addition of 5 μl of an aqueous EDTA-solution (50 mM EDTA, in 100 mM HEPES pH 7.5 and 0.2% (w/v) bovine serum albumin) which also contained the TR-FRET detection reagents (0.2 μM streptavidin-XL665 [Cisbio Bioassays, Codolet, France] and 1 nM anti-phosho-Serine antibody [Merck Millipore, cat. #35-002] and 0.4 nM LANCE EU-W1024 labeled anti-mouse IgG antibody [Perkin-Elmer, product no. AD0077, alternatively a Terbium-cryptate-labeled anti-mouse IgG antibody from Cisbio Bioassays can be used]). The stopped reaction mixture was further incubated 1 h at 22° C. in order to allow the formation of complexes between peptides and detection reagents. Subsequently, the amount of product was evaluated by measurement of the resonance energy transfer from the Eu-chelate-antibody complex recognizing the Phosphoserine residue to the streptavidin-XL665 bound to the biotin moiety of the peptide. To this end, the fluorescence emissions at 620 nm and 665 nm after excitation at 330-350 nm were measured in a TR-FRET plate reader, e.g. a Rubystar or Pherastar (both from BMG Labtechnologies, Offenburg, Germany) or a Viewlux (Perkin-Elmer) and the ratio of the emissions (665 nm/[…]) was taken as indicator for the amount of phosphorylated substrate. The data were normalised using two sets of control wells for high-(=enzyme reaction without inhibitor=0%=Minimum inhibition) and low-(=all assay components without enzyme=100%=Maximum inhibition) Bub1 activity. IC50 values were calculated by fitting the normalized inhibition data to a 4-parameter logistic equation (Minimum, Maximum, IC50, Hill; Y=Max+(Min−Max)/(1+(X/IC50)Hill)).

[6] = 2 mM ATP, mean, read-out: EGFR ins SVD IC50 [mol/l] (mean)
[7] = Table 9, read-out: mutEGFR (D770_N771insSVD) kinase assay IC50

Sequence of EGFR ins SVD (insertion of SVD between D770 and N771) (P00533 with tags, fused parts or gaps INS767SVD limits assumed): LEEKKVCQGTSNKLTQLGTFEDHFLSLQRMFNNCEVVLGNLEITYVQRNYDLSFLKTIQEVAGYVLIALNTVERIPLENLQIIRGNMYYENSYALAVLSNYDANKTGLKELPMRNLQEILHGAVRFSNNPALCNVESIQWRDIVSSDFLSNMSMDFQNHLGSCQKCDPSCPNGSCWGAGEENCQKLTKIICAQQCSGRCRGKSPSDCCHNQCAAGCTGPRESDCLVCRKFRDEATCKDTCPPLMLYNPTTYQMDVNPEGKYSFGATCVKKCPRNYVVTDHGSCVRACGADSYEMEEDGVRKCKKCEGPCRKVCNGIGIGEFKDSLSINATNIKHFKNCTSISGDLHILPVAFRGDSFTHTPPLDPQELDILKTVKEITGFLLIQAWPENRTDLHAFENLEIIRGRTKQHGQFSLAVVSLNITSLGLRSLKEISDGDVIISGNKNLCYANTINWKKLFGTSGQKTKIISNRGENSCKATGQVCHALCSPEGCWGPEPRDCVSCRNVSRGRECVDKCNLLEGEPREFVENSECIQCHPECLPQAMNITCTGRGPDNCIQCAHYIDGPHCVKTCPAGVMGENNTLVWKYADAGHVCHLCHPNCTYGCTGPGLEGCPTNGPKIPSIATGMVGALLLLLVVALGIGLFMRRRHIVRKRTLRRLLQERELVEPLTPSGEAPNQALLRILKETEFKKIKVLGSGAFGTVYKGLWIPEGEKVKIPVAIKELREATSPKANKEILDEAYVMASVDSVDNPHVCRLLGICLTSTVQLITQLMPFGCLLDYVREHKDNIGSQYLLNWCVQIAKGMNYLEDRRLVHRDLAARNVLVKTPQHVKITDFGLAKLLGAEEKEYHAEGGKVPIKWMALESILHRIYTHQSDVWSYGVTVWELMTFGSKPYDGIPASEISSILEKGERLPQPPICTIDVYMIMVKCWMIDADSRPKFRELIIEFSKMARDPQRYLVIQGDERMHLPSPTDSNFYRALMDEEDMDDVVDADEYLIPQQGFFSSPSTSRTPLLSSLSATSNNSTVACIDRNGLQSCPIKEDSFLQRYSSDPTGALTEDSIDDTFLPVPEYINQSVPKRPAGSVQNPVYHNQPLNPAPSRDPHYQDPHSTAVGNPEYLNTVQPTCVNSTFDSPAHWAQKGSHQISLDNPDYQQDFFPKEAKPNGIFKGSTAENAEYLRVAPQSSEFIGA

| Structure (SMILES) | IC50 [1, 6] [nM] | IC50 [1, 7] [nM] | EGFR ins ASV IC50 [mol] (mean) [2] | IC50 ([3]; Mus musculus, BaF3, 48 h) [nM] | IC50 ([4]; Mus musculus, BaF3, 48 h) [nM] | IC50 [5] [nM] | IC50 ([3]; 48 h) [nM] | IC50 ([4]; 48 h) [nM] |
| --- | --- | --- | --- | --- | --- | --- | --- | --- |
| COCCOc1cnccc1-c1[nH]c2c(c1Nc1ccccc1OC(F)F)C(=O)NCC2 [Example 11, 3-{[2-(difluoromethoxy)phenyl]amino}-2-[3-(2-methoxyethoxy)pyridin-4-yl]-1,5,6,7-tetrahydro-4H-pyrrolo[3,2-c]pyridin-4-one] | 0.22 | 0.292 | 4.25e-09 | 1780 | 357 | 192 |  |  |
| COCCOc1cnccc1-c1[nH]c2c(c1Nc1ccccc1OC)C(=O)NCC2 [Example 13, 2-[3-(2-methoxyethoxy)pyridin-4-yl]-3-[(2-methoxyphenyl)amino]-1,5,6,7-tetrahydro-4H-pyrrolo[3,2-c]pyridin-4-one] | 4.41 | 4.41 | 3.89e-08 | 4010 | 811 | 350 |  |  |
| COCCOc1cnccc1-c1[nH]c2c(c1Nc1ccccc1CC(F)F)C(=O)NCC2 [Example 15, 3-{[2-(2,2-difluoroethyl)phenyl]amino}-2-[3-(2-methoxyethoxy)pyridin-4-yl]-1,5,6,7-tetrahydro-4H-pyrrolo[3,2-c]pyridin-4-one] | 0.489 | 0.489 | 1.34e-09 | 2870 | 409 | 187 |  |  |
| COc1c(F)cccc1Nc1c(-c2ccncc2OCC(C)(C)OC)[nH]c2c1C(=O)NCC2 [Example 17, 3-[(3-fluoro-2-methoxyphenyl)amino]-2-[3-(2-methoxy-2-methylpropoxy)pyridin-4-yl]-1,5,6,7-tetrahydro-4H-pyrrolo[3,2-c]pyridin-4-one] | 0.113 | 0.113 | 1.77e-10 | 397 | 11.9 | 55.1 |  |  |
| COC(C)(C)COc1cnccc1-c1[nH]c2c(c1Nc1cccc(F)c1OC(F)F)C(=O)NCC2 [Example 19, 3-{[2-(difluoromethoxy)-3-fluorophenyl]amino}-2-[3-(2-methoxy-2-methylpropoxy)pyridin-4-yl]-1,5,6,7-tetrahydro-4H-pyrrolo[3,2-c]pyridin-4-one] | 0.155 | 0.148 | 2.39e-10 |  |  | 149 | 870 | 40.1 |
| COCCOc1cnccc1-c1[nH]c2c(c1Nc1cccc(F)c1C)C(=O)NCC2 [Example 20, 3-[(3-fluoro-2-methylphenyl)amino]-2-[3-(2-methoxyethoxy)pyridin-4-yl]-1,5,6,7-tetrahydro-4H-pyrrolo[3,2-c]pyridin-4-one] | 0.149 | 0.149 | 3.22e-10 | 625 | 48.3 | 67.4 |  |  |
| COC(C)(C)COc1cnccc1-c1[nH]c2c(c1Nc1cccc(F)c1CC(F)F)C(=O)NCC2 [Example 23, 3-{[2-(2,2-difluoroethyl)-3-fluorophenyl]amino}-2-[3-(2-methoxy-2-methylpropoxy)pyridin-4-yl]-1,5,6,7-tetrahydro-4H-pyrrolo[3,2-c]pyridin-4-one] | 0.259 | 0.191 | 3.42e-10 | 388 | 33 | 67.3 |  |  |
| CCOc1c(F)cccc1Nc1c(-c2ccncc2OCC(C)(C)OC)[nH]c2c1C(=O)NCC2 [Example 26, 3-[(2-ethoxy-3-fluorophenyl)amino]-2-[3-(2-methoxy-2-methylpropoxy)pyridin-4-yl]-1,5,6,7-tetrahydro-4H-pyrrolo[3,2-c]pyridin-4-one] | 0.268 | 0.415 | 9.43e-10 | 2000 | 618 | 85.8 |  |  |
| COC(C)(C)COc1cnccc1-c1[nH]c2c(c1Nc1cccc(F)c1OCC(F)F)C(=O)NCC2 [Example 27, 3-{[2-(2,2-difluoroethoxy)-3-fluorophenyl]amino}-2-[3-(2-methoxy-2-methylpropoxy)pyridin-4-yl]-1,5,6,7-tetrahydro-4H-pyrrolo[3,2-c]pyridin-4-one] | 2.14 | 2.14 | 7.09e-09 | 2500 | 498 | 70.1 |  |  |
| COCCOc1cnccc1-c1[nH]c2c(c1Nc1ccc(F)c(F)c1OC)C(=O)NCC2 [Example 28, 3-[(3,4-difluoro-2-methoxyphenyl)amino]-2-[3-(2-methoxyethoxy)pyridin-4-yl]-1,5,6,7-tetrahydro-4H-pyrrolo[3,2-c]pyridin-4-one] | 0.738 | 0.54 | 2.69e-08 | 3670 | 644 | 565 |  |  |
| COCCOc1cnccc1-c1[nH]c2c(c1Nc1cc(F)cc(F)c1OC)C(=O)NCC2 [Example 30, 3-[(3,5-difluoro-2-methoxyphenyl)amino]-2-[3-(2-methoxyethoxy)pyridin-4-yl]-1,5,6,7-tetrahydro-4H-pyrrolo[3,2-c]pyridin-4-one] | 0.0969 | 0.109 | 2.09e-10 | 1860 | 149 | 323 |  |  |
| COc1c(F)cc(F)cc1Nc1c(-c2ccncc2OCC(C)(C)OC)[nH]c2c1C(=O)NCC2 [Example 31, 3-[(3,5-difluoro-2-methoxyphenyl)amino]-2-[3-(2-methoxy-2-methylpropoxy)pyridin-4-yl]-1,5,6,7-tetrahydro-4H-pyrrolo[3,2-c]pyridin-4-one] | 0.0988 | 0.193 | 1.61e-10 | 1710 | 158 | 265 |  |  |
